Reference: patent publication US20230416287A1, “Chemical Compounds” (GLAXOSMITHKLINE INTELLECTUAL PROPERTY DEVELOPMENT LIMITED, priority 2022, published 2023)
≈ marks a conversion by molar mass, not a printed value.

Assays:
[1] = CAD kinetic solubility; type: physicochemical; details: phosphate buffered saline (PBS), aqueous buffer, PBS pH 7.4, 1 hour equilibration at room temperature, from DMSO stock, HPLC-CAD
Method: Kinetic solubility was measured using Charged Aerosol Detector (CAD). The aqueous kinetic solubility at pH 7.4 was determined by measuring the concentration of solute in solution after precipitation from DMSO stock solution. The DMSO stock solution was diluted 20-fold with phosphate buffered saline (PBS) pH 7.4 and the solubility of the compound was measured after 1 hour equilibration at room temperature by HPLC-CAD.

[2] = molecular target: T1, human Nav1.8 (Homo sapiens, UniProt Q9Y5Y9); assay: Manual patch-clamp electrophysiology assay, HEK293 cells overexpressing human Nav1.8; type: cell-based; design: host or cells: HEK293; details: manual whole-cell patch-clamp, single-pulse resting protocol, holding voltage -120 mV, step to 0 mV, room temperature
From the text: The pharmacological activity of the Compounds of Example 4A and Example 5A (active parent compound of prodrug Example 4 and Example 5, respectively) was investigated by a patch-clamp electrophysiological method using a cellular system in which human Nav1.8 was overexpressed in HEK293 cells. Using this approach Nav1.8 can be activated by modulating the plasma membrane voltage and then channel function (Na^+ conduction) can be directly quantified. The ability of Nav1.8 inhibitors to block channel function in this system is a measurement of target binding and inhibition.
Cell preparation: HEK293 cells overexpressing human Nav1.8 (BIOCAT124824) were grown at 37° C., 5% C02 in medium (DMEM/F12 with 10% FBS, 2 mM GlutaMAX, 0.1 mM NEAA and […] G418, […] Hygromycin-B and […] Puromycin). […]
Voltage-clamp recording protocol: Compound effects were tested using single-pulse resting protocol in which cells were depolarized to 0 mV for 50 ms from a holding voltage of −120 mV. The peak current amplitudes were measured from the activated currents at 0 mV. […]
Nav1.8 current amplitudes measurement and normalization: Nav1.8 peak currents elicited by test pulse of 0 mV were measured and analysed by Clampfit 10.6 Software (Molecular Devices, USA). […]
Compound inhibition analysis: The compound inhibition effect was calculated using the following equation: […]

[3] = molecular target: T1, human Nav1.8; assay: Nav1.8 inhibitory activity, QPatch 48 HTX electrophysiology in HEK293-Nav1.8 cells; type: cell-based; design: expressed in transfected cells; host or cells: HEK293; details: half inactivation state voltage protocol (V1/2), HEK293 cells expressing human Nav1.8, read-out: [Nav1.8] pIC50 (converted)
Method: Biological Assay 1: Nav1.8 Inhibitory Activity Human embryonic kidney 293 cells (HEK293) expressing human Nav1.8, human Navol and human TREK1 (HEK293-Nav1.8) were grown in T150 cell culture flasks at 37° C., 5% CO2 incubator. HEK293-Nav1.8 were passaged every 2-3 days when confluency reached 80-90% in T150 cell culture flasks.
Pharmacological assessment of compounds of the invention was performed using the QPatch 48 HTX electrophysiological platform. HEK293-Nav1.8 cells were prepared on the day of use by removing culture media, washing in DPBS, adding Accutase (2 mL to cover the surface, aspirate 1 mL then 1-2 minutes at 37° C.) followed by addition of CHO-SFM II to stop the enzyme digestion and in order to obtain a suspension of 3×10^6 cell/mL.
Compounds of the invention were prepared in an extracellular solution of the following composition: NaCl (145 mM), KCl (4 mM), CaCl2) (2 mM), MgCl (2 mM), HEPES (1 mM), Glucose (10 mM), pH 7.4 with NaOH Osmolality 300 mOsM/L. An intracellular solution of the following composition was used: CsF (115 mM), CsCl (20 mm), NaCl (5 mM), EGTA (10 mM), HEPES (10 mM), Sucrose (20 mM), pH 7.2 with CsOH Osmolality 310 mOsm/L.
Utilizing the voltage-clamp mode in the QPatch 48 HTX system a half inactivation state voltage protocol (V1/2) was used to determine pharmacological activity of compounds of the invention at Nav1.8 ion channels. A V1/2 protocol was utilized with the following voltage steps: a holding voltage of −100 mV was established followed by a 20 ms voltage step to 0 mV (P1), followed by an inactivating voltage step at −46 mV for 8 seconds, followed by a step to −100 mV for 20 ms, before a 20 ms step to 0 mV (P2), then returned to the holding voltage of −100 mV. This voltage protocol was repeated at a frequency of every 15 seconds, the current magnitude was quantified at the P2 step throughout the recording. Inhibition of the measured current amplitude with compounds of the invention was analyzed by fitting a 4-6 points dose-response curve allowing determination of the fifty percent inhibition concentration (IC50). P2 currents were normalized according to measurements made at baseline (Baseline, vehicle only), after compound (Input, at each test concentration), and after positive reference compound (FullResponse, to achieve complete block), fit to the following equation: […]
To assess current run-down over the course of the experiment vehicle-only wells were utilized and the normalized current with vehicle-only (n. IVEH) was determined. To correct the compound response for run-down, the currents were corrected according to the following formula:
[formula] • Compound inhibition was fitted to the following Hill Equation to estimate the half maximal inhibition concentration (IC50)
[formula] • where Y is the normalized run-down corrected inhibition relative to the vehicle control (equivalent to n. IRD_Correct), C the test compound concentration, IC50 the concentration of test compound to inhibit the sodium current by 50%, and h the Hill coefficient.

T1 sequence (Q9Y5Y9 whole entry): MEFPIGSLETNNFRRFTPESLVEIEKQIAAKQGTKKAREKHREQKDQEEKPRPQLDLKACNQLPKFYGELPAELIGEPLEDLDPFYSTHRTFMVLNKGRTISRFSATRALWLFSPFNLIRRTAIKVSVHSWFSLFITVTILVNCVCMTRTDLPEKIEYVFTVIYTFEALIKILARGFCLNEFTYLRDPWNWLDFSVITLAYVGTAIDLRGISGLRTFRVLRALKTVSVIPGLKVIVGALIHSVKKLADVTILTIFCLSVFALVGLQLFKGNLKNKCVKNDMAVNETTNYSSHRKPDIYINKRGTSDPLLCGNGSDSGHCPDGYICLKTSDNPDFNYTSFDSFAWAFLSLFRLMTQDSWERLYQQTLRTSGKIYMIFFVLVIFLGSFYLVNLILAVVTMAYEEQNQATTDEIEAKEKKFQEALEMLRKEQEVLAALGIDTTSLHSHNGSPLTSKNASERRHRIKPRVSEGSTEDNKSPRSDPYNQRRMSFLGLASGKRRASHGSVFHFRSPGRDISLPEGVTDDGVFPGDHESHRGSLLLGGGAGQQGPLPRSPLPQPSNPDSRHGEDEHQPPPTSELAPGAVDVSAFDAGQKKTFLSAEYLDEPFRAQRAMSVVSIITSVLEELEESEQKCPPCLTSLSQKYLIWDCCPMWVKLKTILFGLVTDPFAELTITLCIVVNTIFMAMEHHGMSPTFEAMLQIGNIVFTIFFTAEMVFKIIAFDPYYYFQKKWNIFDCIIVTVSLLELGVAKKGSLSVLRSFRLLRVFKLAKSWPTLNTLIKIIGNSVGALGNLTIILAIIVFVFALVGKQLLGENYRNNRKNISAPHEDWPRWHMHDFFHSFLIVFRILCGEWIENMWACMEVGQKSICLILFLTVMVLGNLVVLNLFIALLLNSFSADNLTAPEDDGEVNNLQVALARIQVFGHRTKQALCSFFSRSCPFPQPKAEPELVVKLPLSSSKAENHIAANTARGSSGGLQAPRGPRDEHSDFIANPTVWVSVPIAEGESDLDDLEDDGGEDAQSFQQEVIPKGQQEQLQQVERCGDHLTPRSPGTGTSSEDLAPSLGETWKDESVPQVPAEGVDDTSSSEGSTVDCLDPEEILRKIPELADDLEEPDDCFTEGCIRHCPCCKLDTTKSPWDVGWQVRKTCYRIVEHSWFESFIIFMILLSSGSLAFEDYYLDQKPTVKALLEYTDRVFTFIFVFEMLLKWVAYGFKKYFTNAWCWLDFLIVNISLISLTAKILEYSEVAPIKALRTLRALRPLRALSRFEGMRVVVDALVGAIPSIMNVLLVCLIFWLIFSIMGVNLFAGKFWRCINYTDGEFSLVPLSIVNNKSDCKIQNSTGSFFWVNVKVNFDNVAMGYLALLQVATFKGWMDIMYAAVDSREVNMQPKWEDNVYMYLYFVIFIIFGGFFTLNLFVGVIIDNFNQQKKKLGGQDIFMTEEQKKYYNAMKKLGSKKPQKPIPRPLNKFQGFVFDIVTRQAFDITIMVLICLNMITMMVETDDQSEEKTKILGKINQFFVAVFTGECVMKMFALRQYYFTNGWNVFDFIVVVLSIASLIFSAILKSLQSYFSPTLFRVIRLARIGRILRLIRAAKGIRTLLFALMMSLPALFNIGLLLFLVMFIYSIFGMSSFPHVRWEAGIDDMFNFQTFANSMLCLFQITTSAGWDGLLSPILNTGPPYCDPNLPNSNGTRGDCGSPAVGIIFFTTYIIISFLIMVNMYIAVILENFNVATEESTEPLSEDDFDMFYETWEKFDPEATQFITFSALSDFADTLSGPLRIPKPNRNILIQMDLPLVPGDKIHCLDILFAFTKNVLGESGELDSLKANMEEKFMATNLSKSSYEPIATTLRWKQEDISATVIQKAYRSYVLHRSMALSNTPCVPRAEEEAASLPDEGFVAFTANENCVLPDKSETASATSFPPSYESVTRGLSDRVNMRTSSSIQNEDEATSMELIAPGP

Structure (SMILES) | solubility at 1 h [1] [µg/mL] | IC50 [2] [nM] | IC50 [3] [nM]
Cc1[nH]c(=O)ccc1N1CN(c2ccc(F)c(F)c2C)c2cc(Cl)c(F)cc2C1=O [Example 4A, 7-chloro-1-(3,4-difluoro-2-methylphenyl)-6-fluoro-3-(2-methyl-6-oxo-1,6-dihydropyridin-3-yl)-2,3-dihydroquinazolin-4(1H)-one] | 44 (≈ 101 µM) | 0.8 ± 0.2 | 5.01
Cc1cc(F)ccc1N1CN(c2ccc(=O)[nH]c2C)C(=O)c2cc(F)c(Cl)cc21 [Example 5A, 7-chloro-6-fluoro-1-(4-fluoro-2-methylphenyl)-3-(2-methyl-6-oxo-1,6-dihydropyridin-3-yl)-2,3-dihydroquinazolin-4(1H)-one] | 55 (≈ 132 µM) | 2.2 | 5.01
